The results in this text go back to US20070010556A1, “Thiophene derivatives as chk 1 inhibitors” (ASTRAZENECA AB, priority 2004, published 2007).

The target of the test is T1, CHK1 kinase (Homo sapiens, UniProt O14757).
T1 construct: The kinase domain is expressed in baculovirus and purified by the GST tag; GST; made in house
T1 sequence (O14757 9-265 limits assumed): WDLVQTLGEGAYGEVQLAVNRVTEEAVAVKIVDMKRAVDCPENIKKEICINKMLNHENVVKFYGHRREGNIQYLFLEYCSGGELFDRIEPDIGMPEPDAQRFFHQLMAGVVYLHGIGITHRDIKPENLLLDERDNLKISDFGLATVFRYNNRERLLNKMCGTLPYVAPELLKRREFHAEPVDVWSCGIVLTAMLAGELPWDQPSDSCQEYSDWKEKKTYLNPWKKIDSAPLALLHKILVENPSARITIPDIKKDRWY
As to the kind of experiment: Checkpoint Kinase 1 Assay (Scintillation Proximity Assay). Format: biochemical. The procedure:
Checkpoint Kinase 1 Assay: This in vitro assay measures the inhibition of CHK1 kinase by compounds. The kinase domain is expressed in baculovirus and purified by the GST tag. Purified protein and biotinylated peptide substrate (Cdc25C) is then used in a 384 well automated Scintillation Proximity Assay (SPA). Specifically, peptide, enzyme and reaction buffer are mixed and aliquoted into a 384 well plate containing dilution series of compounds and controls. Cold and hot ATP are then added to initiate the reaction. After 2 hours, a SPA bead slurry, […] and EDTA are added to stop the reaction and capture the biotinylated peptide. Plates are then counted on a Topcount. Data is analyzed and IC50s determined for individual compounds.
On the technique in general: Scintillation proximity formats need no separation of bound from free tracer.

One may read the pIC50 as −log10 of the IC50, conventionally taken in molar units. Low readings indicate a large IC50, high ones a small IC50.

Molecules are shown by their SMILES. pIC50: −log10 of the molar value.

Molecule `COc1ccc(F)cc1-c1cc(C(=O)N[C@H]2CCCCNC2)c(NC(N)=O)s1` [Example 97] had a pIC50 of 9.85.

In turn, `O=C(Nc1cnccn1)Nc1cc(-c2ccc(Cl)cc2)sc1C(=O)N[C@H]1CCCNC1` [Example 263, 5-(4-Chloro-phenyl)-3-(3-pyrazin-2-yl-ureido)-thiophene-2-carboxylic acid (S)-piperidin-3-ylamide] gave a negative-log IC50 (pIC50) of 9.92.
